Test results: patent publication US10988445B2 (AstraZeneca AB, priority 2015, dated 2021)

Tested on: human TH17 cells
Assay: Inhibition of IL-17 release from human TH17 cells
Format: cell-based
Conditions: isolated human TH17 cells, 4 days culture, IL-17A by HTRF; for IC50: Homo sapiens, 96 h, read-out: pIC50 IL-17 release (converted)
Text: Inhibition of IL-17 Release from Human TH17 Cells (IL-17 Release)
This test is designed to screen compounds for their inhibitory effect on the release of IL-17 from isolated and cultured human TH17 cells.
Peripheral blood mononuclear cells (PBMC) were isolated from heparin treated human whole blood fromhealthy donors by density gradient centrifugation. TH17 cells (CD4+CXCR3-CCR6+) were enriched using a human TH17 Cell Enrichment Kit (Stemcell Technologies) according to the manufacturer's protocol. […] On day 4 supernatants were collected and IL-17A was measured using a Human IL-17 HTRF Assay kit (Cisbio Bioassays) according to the manufacturer's protocol. […] Results

| Compound | IC50 [nM] | pIC50 IL-17 release (listed as 307, isomer 1) |
| --- | --- | --- |
| COCCS(=O)(=O)c1ccc2c(c1)CN(C(=O)CO)C2C(=O)Nc1ccc(C(O)(C(F)(F)F)C(F)(F)F)cc1 (centres unmarked) [Example 705, N-[4-(1,1,1,3,3,3-Hexafluoro-2-hydroxypropan-2-yl)phenyl]-2-(hydroxyacetyl)-5-[(2-methoxyethyl)sulfonyl]-2,3-dihydro-1H-isoindole-1-carboxamide] | 100 |  |
| O=CN1Cc2cc(S(=O)(=O)C3CC3)ccc2C1C(=O)Nc1ccc(C(O)(C(F)(F)F)C(F)(F)F)cc1 (centres unmarked) [Example 604, 5-(Cyclopropylsulfonyl)-2-formyl-N-[4-(1,1,1,3,3,3-hexafluoro-2-hydroxypropan-2-yl)phenyl]-2,3-dihydro-1H-isoindole-1-carboxamide] | 50.1 |  |
| COC1(CC(=O)N2Cc3cc(S(=O)(=O)CC4CC4)ccc3C2C(=O)Nc2ccc(C(O)(C(F)(F)F)C(F)(F)F)cc2)CC1 (centres unmarked) [Example 205, 5-[(Cyclopropylmethyl)sulfonyl]-N-[4-(1,1,1,3,3,3-hexafluoro-2-hydroxypropan-2-yl)phenyl]-2-[(1-methoxycyclopropyl)acetyl]-2,3-dihydro-1H-isoindole-1-carboxamide] | 15.8 |  |
| CS(=O)(=O)c1ccc2c(c1)CN(C(N)=O)C2C(=O)Nc1ccc(C(O)(C(F)(F)F)C(F)(F)F)cc1 (centres unmarked) [Example 455, N^1-[4-(1,1,1,3,3,3-Hexafluoro-2-hydroxypropan-2-yl)phenyl]-5-(methylsulfonyl)-1,3-dihydro-2H-isoindole-1,2-dicarboxamide] | 100 |  |
| CO[C@H](C)C(=O)N1Cc2cc(S(C)(=O)=O)ccc2C1C(=O)Nc1ccc(C(O)(C(F)(F)F)C(F)(F)F)cc1 (mixture of isomers) [Example 449, N-[4-(1,1,1,3,3,3-Hexafluoro-2-hydroxypropan-2-yl)phenyl]-2-[(2R)-2-methoxypropanoyl]-5-(methylsulfonyl)-2,3-dihydro-1H-isoindole-1-carboxamide] | 79.4 |  |
| CNC(=O)N1Cc2cc(S(=O)(=O)C3CC3)ccc2C1C(=O)Nc1ccc(C(O)(C(F)(F)F)C(F)(F)F)cc1 (centres unmarked) [Example 610] | 63.1 |  |
| CC(=O)N1Cc2cc(S(=O)(=O)CC3(O)CC3)ccc2C1C(=O)Nc1ccc(C(O)(C(F)(F)F)C(F)(F)F)cc1 (centres unmarked) [Example 1101, 2-Acetyl-N-[4-(1,1,1,3,3,3-hexafluoro-2-hydroxypropan-2-yl)phenyl]-5-{[(1-hydroxycyclopropyl)methyl]sulfonyl}-2,3-dihydro-1H-isoindole-1-carboxamide] | 63.1 |  |
| O=C(Nc1ccc(C(O)(C(F)(F)F)C(F)(F)F)cc1)C1c2ccc(S(=O)(=O)C3CC3)cc2CN1C(=O)[C@H]1CCCO1 (stereo partly drawn) [Example 609, 5-(Cyclopropylsulfonyl)-N-[4-(1,1,1,3,3,3-hexafluoro-2-hydroxypropan-2-yl)phenyl]-2-[(2R)-tetrahydrofuran-2-ylcarbonyl]-2,3-dihydro-1H-isoindole-1-carboxamide] | 50.1 |  |
| CS(=O)(=O)c1ccc2c(c1)CN(C(=O)CC1(O)CC1)C2C(=O)Nc1ccc(C(O)(C(F)(F)F)C(F)(F)F)cc1 (centres unmarked) [Example 412, N-[4-(1,1,1,3,3,3-Hexafluoro-2-hydroxypropan-2-yl)phenyl]-2-[(1-hydroxycyclopropyl)acetyl]-5-(methylsulfonyl)-2,3-dihydro-1H-isoindole-1-carboxamide] | 25.1 |  |
| CC[C@H](O)C(=O)N1Cc2cc(S(=O)(=O)NC)ccc2C1C(=O)Nc1ccc(C(O)(C(F)(F)F)C(F)(F)F)cc1 (single isomer, unassigned) [Example 307, isomer 1, (R) or (S)N-[4-(1,1,1,3,3,3-Hexafluoro-2-hydroxypropan-2-yl)phenyl]-2-[(2S)-2-hydroxybutanoyl]-5-(methylsulfamoyl)-2,3-dihydro-1H-isoindole-1-carboxamide] |  | 7.5 |
| CNS(=O)(=O)c1ccc2c(c1)CN(C(=O)CO)C2C(=O)Nc1ccc(C(O)(C(F)(F)F)C(F)(F)F)cc1 (centres unmarked) [Example 313, N-[4-(1,1,1,3,3,3-Hexafluoro-2-hydroxypropan-2-yl)phenyl]-2-(hydroxyacetyl)-5-(methylsulfamoyl)-2,3-dihydro-1H-isoindole-1-carboxamide] | 100 |  |
| CCS(=O)(=O)c1ccc2c(c1)CN(C(=O)CC(C)(C)O)C2C(=O)Nc1ccc(C(O)(C(F)(F)F)C(F)(F)F)cc1 (centres unmarked) [Example 106, 5-(Ethylsulfonyl)-N-[4-(1,1,1,3,3,3-hexafluoro-2-hydroxypropan-2-yl)phenyl]-2-(3-hydroxy-3-methylbutanoyl)-2,3-dihydro-1H-isoindole-1-carboxamide] | 63.1 |  |
| CS(=O)(=O)c1ccc2c(c1)CN(C(=O)C1COC1)C2C(=O)Nc1ccc(C(O)(C(F)(F)F)C(F)(F)F)cc1 (centres unmarked) [Example 444, N-[4-(1,1,1,3,3,3-Hexafluoro-2-hydroxypropan-2-yl)phenyl]-5-(methylsulfonyl)-2-(oxetan-3-ylcarbonyl)-2,3-dihydro-1H-isoindole-1-carboxamide] | 63.1 |  |
| CCS(=O)(=O)c1ccc2c(c1)CN(C(=O)CC1CCC1)C2C(=O)Nc1ccc(C(O)(C(F)(F)F)C(F)(F)F)cc1 (centres unmarked) [Example 109, 2-(Cyclobutylacetyl)-5-(ethylsulfonyl)-N-[4-(1,1,1,3,3,3-hexafluoro-2-hydroxypropan-2-yl)phenyl]-2,3-dihydro-1H-isoindole-1-carboxamide] | 20 |  |
| O=C(Nc1ccc(C(O)(C(F)(F)F)C(F)(F)F)cc1)C1NCc2cc(S(=O)(=O)CC3(O)CC3)ccc21 (centres unmarked) [Example 1100, N-[4-(1,1,1,3,3,3-Hexafluoro-2-hydroxypropan-2-yl)phenyl]-5-{[(1-hydroxycyclopropyl)methyl]sulfonyl}-2,3-dihydro-1H-isoindole-1-carboxamide] | 200 |  |
| CS(=O)(=O)c1ccc2c(c1)CN(C(=O)CC1(C#N)CC1)C2C(=O)Nc1ccc(C(O)(C(F)(F)F)C(F)(F)F)cc1 (centres unmarked) [Example 427, 2-[(1-Cyanocyclopropyl)acetyl]-N-[4-(1,1,1,3,3,3-hexafluoro-2-hydroxypropan-2-yl)phenyl]-5-(methylsulfonyl)-2,3-dihydro-1H-isoindole-1-carboxamide] | 100 |  |
| CCC(OC)C(=O)N1Cc2cc(S(C)(=O)=O)ccc2C1C(=O)Nc1ccc(C(O)(C(F)(F)F)C(F)(F)F)cc1 (centres unmarked) [Example 447, N-[4-(1,1,1,3,3,3-Hexafluoro-2-hydroxypropan-2-yl)phenyl]-2-(2-methoxybutanoyl)-5-(methylsulfonyl)-2,3-dihydro-1H-isoindole-1-carboxamide] | 50.1 |  |
| CS(=O)(=O)c1ccc2c(c1)CN(C(=O)C1CC(O)C1)C2C(=O)Nc1ccc(C(O)(C(F)(F)F)C(F)(F)F)cc1 (stereo not drawn) [Example 430, N-[4-(1,1,1,3,3,3-Hexafluoro-2-hydroxypropan-2-yl)phenyl]-2-[(trans-3-hydroxycyclobutyl)carbonyl]-5-(methylsulfonyl)-2,3-dihydro-1H-isoindole-1-carboxamide] | 126 |  |
| CNC(=O)N1Cc2cc(S(=O)(=O)NC)ccc2C1C(=O)Nc1ccc(C(O)(C(F)(F)F)C(F)(F)F)cc1 (centres unmarked) [Example 314] | 63.1 |  |
| CCS(=O)(=O)c1ccc2c(c1)CN(C(=O)C1(C#N)CC1)C2C(=O)Nc1ccc(C(O)(C(F)(F)F)C(F)(F)F)cc1 (centres unmarked) [Example 105, 2-[(1-Cyanocyclopropyl)carbonyl]-5-(ethylsulfonyl)-N-[4-(1,1,1,3,3,3-hexafluoro-2-hydroxypropan-2-yl)phenyl]-2,3-dihydro-1H-isoindole-1-carboxamide] | 20 |  |
| CCNC(=O)N1Cc2cc(S(C)(=O)=O)ccc2C1C(=O)Nc1ccc(C(O)(C(F)(F)F)C(F)(F)F)cc1 (centres unmarked) [Example 454, N^2-Ethyl-N^1-[4-(1,1,1,3,3,3-hexafluoro-2-hydroxypropan-2-yl)phenyl]-5-(methylsulfonyl)-1,3-dihydro-2H-isoindole-1,2-dicarboxamide] | 39.8 |  |
| CCS(=O)(=O)c1ccc2c(c1)CN(C(=O)C(F)(F)C1CC1)C2C(=O)Nc1ccc(C(O)(C(F)(F)F)C(F)(F)F)cc1 (centres unmarked) [Example 104, 2-[Cyclopropyl(difluoro)acetyl]-5-(ethylsulfonyl)-N-[4-(1,1,1,3,3,3-hexafluoro-2-hydroxypropan-2-yl)phenyl]-2,3-dihydro-1H-isoindole-1-carboxamide] | 20 |  |
| COCC(=O)N1Cc2cc(S(=O)(=O)C3CC3)ccc2C1C(=O)Nc1ccc(C(O)(C(F)(F)F)C(F)(F)F)cc1 (centres unmarked) [Example 606, 5-(Cyclopropylsulfonyl)-N-[4-(1,1,1,3,3,3-hexafluoro-2-hydroxypropan-2-yl)phenyl]-2-(methoxyacetyl)-2,3-dihydro-1H-isoindole-1-carboxamide] | 31.6 |  |
| COC1(C(=O)N2Cc3cc(S(=O)(=O)CCO)ccc3C2C(=O)Nc2ccc(C(O)(C(F)(F)F)C(F)(F)F)cc2)CC1 (centres unmarked) [Example 802, N-[4-(1,1,1,3,3,3-Hexafluoro-2-hydroxypropan-2-yl)phenyl]-5-[(2-hydroxyethyl)sulfonyl]-2-[(1-methoxycyclopropyl)carbonyl]-2,3-dihydro-1H-isoindole-1-carboxamide] | 79.4 |  |
| CCOC(=O)N1Cc2cc(S(=O)(=O)CC3CC3)ccc2C1C(=O)Nc1ccc(C(O)(C(F)(F)F)C(F)(F)F)cc1 (centres unmarked) [Example 204, Ethyl 5-[(cyclopropylmethyl)sulfonyl]-1-{[4-(1,1,1,3,3,3-hexafluoro-2-hydroxypropan-2-yl)phenyl]carbamoyl}-1,3-dihydro-2H-isoindole-2-carboxylate] | 7.94 |  |
| COC1(C(=O)N2Cc3cc(S(C)(=O)=O)ccc3C2C(=O)Nc2ccc(C(O)(C(F)(F)F)C(F)(F)F)c(F)c2)CC1 (centres unmarked) [Example 440, N-[3-Fluoro-4-(1,1,1,3,3,3-hexafluoro-2-hydroxypropan-2-yl)phenyl]-2-[(1-methoxycyclopropyl)carbonyl]-5-(methylsulfonyl)-2,3-dihydro-1H-isoindole-1-carboxamide] | 31.6 |  |
